Measured values as given in US20210290575A1, “METHODS AND COMPOSITIONS FOR IDENTIFICATION AND MODULATION OF MICROBIOME BIOCHEMICAL PATHWAYS TO ALTER PHENOTYPE” (Cybele Microbiome, Inc., priority 2017, published 2021).

Test system: Rhipicephalus microplus
Assay: Tick repellency of compounds produced on tick-resistant versus tick-susceptible cattle breeds
Conditions: compound produced on host; ticks on cattle (Nelore vs Holstein)
From the text: The tick Rhipicephalus microplus specializes on cattle and other large bovids. However, success of its blood-feeding depends on the breed of the bovine host. In an indicine and a taurine breed of cattle that present contrasting phenotypes of infestation, Nelore and Holstein, respectively, resistant and susceptible to tick infestations as ascertained by the number of ticks and the reproductive success of female ticks completing their life-cycles on these two types of host.
At the same time, different levels of host immunity may affect the composition of tick saliva, contributing to these outcomes.

CC(=O)CCC=C(C)C [6-methyl-5-hepten-2-one]
repellency (result in words): repellent
